Experiments:
[1] = tested on: Turkey liver cytosolic GSTs; test: Turkey liver cytosolic GST activity toward substrates; assay type: biochemical; details: turkey liver cytosol
[2] = tested on: BHA-induced mouse liver; assay type: in vitro ADME

Compound	activity of turkey liver cytosolic GSTs toward the substrate [1]	AFB1 detoxification, specific enzyme activity [2]
O=[N+]([O-])c1ccc(Cl)c([N+](=O)[O-])c1 [CDNB, chlorodinitrobenezene]	active	
O=[N+]([O-])c1ccc(Cl)c(Cl)c1 [DCNB, dichlornitrobenzene]	active	
aflatoxin B1 [AFB1]		0.426 ± 0.04 nmol/min per mg protein
exo-AFB1-8,9-epoxide [AFBO]	not toward	

Source: patent US20130306000A1, “Aflaxtoxin Resistant Poultry” (priority 2012, published 2013)
